Data as given in patent US20220186210A1, “METHOD FOR I[…]” (priority 2019, published 2022).

How the values were obtained:
[1] = system: HeLa cell clones with PSMB5 point mutations; test: Cell viability assay of single clones with PSMB5 point mutations; type: cell-based; settings: single clones with PSMB5 R78N, V9OL, A108T, C122F, G242D; FIG. 9E
Protocol: Cells were seeded in 96-well plates 24 hour before drug or toxin treatment (5,000 cells for diphtheria toxin (DT) and 3,000 cells for bortezomib), and different concentrations of bortezomib or DT were added. Cells were incubated at 37° C. for 48 hour (DT) or 72 hour (bortezomib) before the addition of 1 mg/ml of MTT (3-[4,5 -dimethylthiazol-2-yl]-2,5 -diphenyltetrazolium bromide). Spectrophotometer readings at 570 nm were collected using BioTek Cytation5 (BioTek Instruments).
(§1) Because missense point mutations were the predominant formats conferring drug resistance for both PSMB5 and PLK1, we decided to employ ssODN-mediated method^(24) to create specific point mutations instead of deletions for validation. We selected nine amino acid residues (R78, T80, V90, M104, A108, D110, C111, C122 and G242) in PSMB5, among which D110 and C111 were included as controls. To choose a proper amino acid for point mutation, the mutant types from screening results or previous reports were preferential choices. For the rest, we made all the substitution to alanine (Table 2). […] It remains to be determined how V90 mediates drug sensitivity and whether V90 alteration changes the structure around Bortezomib binding pocket.

[2] = system: HeLa cells with PSMB5 point mutations; test: Pooled ssODN point-mutation validation, Bortezomib resistant colonies (MTT viability); type: cell-based; settings: bortezomib 8 ng/ml, 72 hour, FIG. 9D
Protocol: For the validation of critical mutations of PSMB5 and PLK1, sgRNAs were designed near the mutation site, and each 119 nt ssODN donor encoded one amino acid substitution for a validated residue. All sgRNAs (sgRNA sequences for the validation of critical mutations) and ssODN donor sequences (ssODN donors encoded one amino acid substitution for a validated residue) are listed in Table 2 as follows.
HeLa cells were transfected with 1 μg of sgRNA and 2 μg of the ssODN donor in six-well plates. Fourteen days after transfection, 1.5×10^5 cells were seeded in six-well plates 24 hour before drug selection. […] The genomes of drug-resistant cells were extracted using the TIANamp Genomic DNA Kit (TIANGEN).
as §1, with “choices.” for “choices. For the rest, we made all the substitution to alanine (Table 2).”

CC(C)C[C@H](NC(=O)[C@H](Cc1ccccc1)NC(=O)c1cnccn1)B(O)O [Bortezomib]
cell susceptibility to Bortezomib [1]: conferred Bortezomib resistance
Bortezomib resistant colonies ([2]; PSMB5 control mutations D110A and C111A): failed to produce Bortezomib resistant colonies
Bortezomib resistant colonies ([2]; PSMB5 mutations R78N, T80A, V90A, M104A, A108T, C122F, G242D): produced variable number of Bortezomib resistant colonies
